Results reported in the OligoGym collection.
HELM strings list units from the 5' end as sugar, base in round brackets, then linkage (d deoxyribose, r ribose, m 2'-O-methyl, p phosphodiester). Strings are as the collection lists them, not checked against the first reports. ss, as = sense and antisense strand; [lna] = locked nucleic acid (LNA); [hna] = hexitol nucleic acid; [s4r] = 4'-thioribose; [fl2r] = 2'-fluoro

Conditions: siRNA
Note: test system not given here.

RNA1{m(U)p.r(U)p.m(G)p.r(G)p.m(G)p.r(G)p.m(A)p.r(A)p.m(G)p.r(C)p.m(G)p.r(G)p.m(C)p.r(C)p.m(G)p.r(G)p.m(C)p.r(G)p.m(G)p.r(T)p.r(T)}|RNA2{r(C)p.r(C)p.r(G)p.r(C)p.r(C)p.r(G)p.r(G)p.r(C)p.r(C)p.r(G)p.r(C)p.r(U)p.r(U)p.r(C)p.r(C)p.r(C)p.r(C)p.m(A)p.m(A)p.r(T)p.r(T)}$$$RNA1{StrandType:ss}|RNA2{StrandType:as}$
target mRNA knockdown: 36%

RNA1{m(U)p.r(G)p.m(A)p.r(A)p.m(C)p.r(G)p.m(U)p.r(C)p.m(A)p.r(C)p.m(C)p.r(G)p.m(A)p.r(G)p.m(G)p.r(A)p.m(G)p.r(A)p.m(A)p.r(T)p.r(T)}|RNA2{r(U)p.r(U)p.r(C)p.r(U)p.r(C)p.r(C)p.r(U)p.r(C)p.r(G)p.r(G)p.r(U)p.r(G)p.m(A)p.r(C)p.r(G)p.r(U)p.r(U)p.r(C)p.m(A)p.r(T)p.r(T)}$$$RNA1{StrandType:ss}|RNA2{StrandType:as}$
target mRNA knockdown: 65%

RNA1{[lna](T)p.r(G)p.[lna](A)p.r(G)p.[lna](A)p.r(G)p.r(A)p.r(A)p.[lna](A)p.r(G)p.r(C)p.[lna](A)p.r(C)p.[lna](A)p.r(G)p.r(A)p.[lna](A)p.r(A)p.r(A)p.[lna](T)p.[lna](T)}|RNA2{r(U)p.r(G)p.r(A)p.r(G)p.r(A)p.r(G)p.r(A)p.r(A)p.r(A)p.r(G)p.r(C)p.r(A)p.r(C)p.r(A)p.r(G)p.r(A)p.r(A)p.r(A)p.r(A)p.d(T)p.d(T)}$$$RNA1{StrandType:ss}|RNA2{StrandType:as}$
target mRNA knockdown: 64%

RNA1{m(G)p.r(A)p.m(U)p.r(A)p.m(C)p.r(U)p.m(U)p.r(C)p.m(U)p.r(G)p.m(G)p.r(U)p.m(U)p.r(C)p.m(C)p.r(C)p.m(U)p.r(C)p.m(C)p.r(T)p.r(T)}|RNA2{r(G)p.r(G)p.r(A)p.r(G)p.r(G)p.r(G)p.r(A)p.r(A)p.r(C)p.r(C)p.r(A)p.r(G)p.r(A)p.r(A)p.r(G)p.r(U)p.r(A)p.r(U)p.r(C)p.r(T)p.r(T)}$$$RNA1{StrandType:ss}|RNA2{StrandType:as}$
target mRNA knockdown: 45%

RNA1{m(U)p.r(A)p.r(A)p.r(A)p.r(C)p.r(U)p.r(U)p.m(U)p.r(G)p.r(G)p.r(G)p.r(G)p.r(A)p.r(A)p.r(G)p.r(G)p.r(G)p.r(A)p.r(G)p.r(T)p.r(T)}|RNA2{r(C)p.r(U)p.r(C)p.r(C)p.r(C)p.r(U)p.r(U)p.r(C)p.r(C)p.r(C)p.m(C)p.r(A)p.r(A)p.r(A)p.r(G)p.r(U)p.r(U)p.m(U)p.r(A)p.r(T)p.r(T)}$$$RNA1{StrandType:ss}|RNA2{StrandType:as}$
target mRNA knockdown: 67%

RNA1{r(C)p.r(U)p.r(U)p.r(A)p.r(C)p.r(G)p.r(C)p.r(U)p.r(G)p.r(A)p.r(G)p.r(U)p.r(A)p.r(C)p.r(U)p.r(U)p.r(C)p.r(G)p.r(A)p.r(T)p.r(T)}|RNA2{r(U)p.r(C)p.r(G)p.r(A)p.r(A)p.r(G)p.r(U)p.[lna](A)p.r(C)p.r(U)p.r(C)p.r(A)p.r(G)p.r(C)p.r(G)p.r(U)p.r(A)p.r(A)p.r(G)p.r(T)p.r(T)}$$$RNA1{StrandType:ss}|RNA2{StrandType:as}$
target mRNA knockdown: 86%

RNA1{r(G)p.r(A)p.m(U)p.r(A)p.r(G)p.r(G)p.r(A)p.r(A)p.r(G)p.r(G)p.r(G)p.m(G)p.r(C)p.r(U)p.r(U)p.m(C)p.r(A)p.r(G)p.r(C)p.r(T)p.r(T)}|RNA2{r(G)p.r(C)p.m(U)p.r(G)p.r(A)p.r(A)p.r(G)p.r(C)p.r(C)p.r(C)p.r(C)p.r(U)p.r(U)p.r(C)p.r(C)p.m(U)p.r(A)p.r(U)p.r(C)p.r(T)p.r(T)}$$$RNA1{StrandType:ss}|RNA2{StrandType:as}$
target mRNA knockdown: 42%

RNA1{r(C)p.r(U)p.r(C)p.r(A)p.r(A)p.r(A)p.r(U)p.r(C)p.r(A)p.r(A)p.r(G)p.r(G)p.r(C)p.r(C)p.r(G)p.r(G)p.r(A)p.r(G)p.r(U)p.r(T)p.r(T)}|RNA2{r(A)p.r(C)p.r(U)p.r(C)p.r(C)p.r(G)p.r(G)p.r(C)p.r(C)p.r(U)p.m(U)p.r(G)p.r(A)p.r(U)p.r(U)p.m(U)p.r(G)p.r(A)p.r(G)p.r(T)p.r(T)}$$$RNA1{StrandType:ss}|RNA2{StrandType:as}$
target mRNA knockdown: 85%

RNA1{r(G)p.r(A)p.r(A)p.r(A)p.r(C)p.m(U)p.m(G)p.r(G)p.m(U)p.r(A)p.r(C)p.r(U)p.r(U)p.r(U)p.r(C)p.r(C)p.r(C)p.r(C)p.r(C)p.r(T)p.r(T)}|RNA2{r(G)p.r(G)p.r(G)p.r(G)p.r(G)p.r(A)p.r(A)p.r(A)p.r(G)p.m(U)p.r(A)p.r(C)p.r(C)p.r(A)p.r(G)p.r(U)p.r(U)p.r(U)p.r(C)p.r(T)p.r(T)}$$$RNA1{StrandType:ss}|RNA2{StrandType:as}$
target mRNA knockdown: 88%

RNA1{m(A)p.r(C)p.m(C)p.r(G)p.m(A)p.r(C)p.m(G)p.r(A)p.m(U)p.r(U)p.m(C)p.r(U)p.m(U)p.r(C)p.m(U)p.r(A)p.m(C)p.r(U)p.m(C)p.r(T)p.r(T)}|RNA2{r(G)p.r(A)p.r(G)p.r(U)p.r(A)p.r(G)p.r(A)p.r(A)p.r(G)p.r(A)p.r(A)p.r(U)p.r(C)p.r(G)p.r(U)p.r(C)p.r(G)p.r(G)p.r(U)p.r(T)p.r(T)}$$$RNA1{StrandType:ss}|RNA2{StrandType:as}$
target mRNA knockdown: 42%

RNA1{r(C)p.r(G)p.r(U)p.r(A)p.r(C)p.r(G)p.r(C)p.r(G)p.r(G)p.r(A)p.r(A)p.r(U)p.r(A)p.r(C)p.r(U)p.r(U)p.r(C)p.r(G)p.r(A)p.r(T)p.r(T)}|RNA2{r(U)p.r(C)p.r(G)p.r(A)p.r(A)p.r(G)p.r(U)p.r(A)p.r(U)p.r(U)p.r(C)p.r(C)p.r(G)p.[s4r](C)p.[s4r](G)p.[s4r](U)p.[s4r](A)p.[s4r](C)p.[s4r](G)p.r(T)p.r(T)}$$$RNA1{StrandType:ss}|RNA2{StrandType:as}$
target mRNA knockdown: 72.2%

RNA1{m(A)p.m(A)p.r(C)p.r(C)p.r(C)p.m(A)p.r(C)p.r(C)p.m(A)p.r(C)p.m(A)p.r(G)p.r(C)p.r(U)p.m(A)p.r(G)p.m(A)p.m(A)p.r(C)p.m(U)p.m(U)}|RNA2{r(A)p.r(A)p.r(G)p.r(U)p.r(U)p.r(C)p.r(U)p.r(A)p.r(G)p.r(C)p.r(U)p.r(G)p.r(U)p.r(G)p.r(G)p.r(U)p.r(G)p.r(G)p.r(G)p.r(U)p.r(U)}$$$RNA1{StrandType:ss}|RNA2{StrandType:as}$
target mRNA knockdown: 42%

RNA1{r(A)p.r(A)p.r(C)p.r(C)p.[fl2r](C)p.r(A)p.r(C)p.r(C)p.r(A)p.r(C)p.r(A)p.r(G)p.r(C)p.[fl2r](U)p.r(A)p.r(G)p.r(A)p.r(A)p.r(C)p.r(U)p.r(U)}|RNA2{r(G)p.r(U)p.r(U)p.r(C)p.[fl2r](U)p.[fl2r](A)p.r(G)p.r(C)p.[fl2r](U)p.r(G)p.r(U)p.r(G)p.r(G)p.r(U)p.r(G)p.r(G)p.r(G)p.r(U)p.r(U)p.r(U)p.r(U)}$$$RNA1{StrandType:ss}|RNA2{StrandType:as}$
target mRNA knockdown: 86%

RNA1{r(G)p.r(A)p.r(C)p.r(G)p.[hna](U)p.r(A)p.r(A)p.[hna](A)p.r(C)p.r(G)p.[hna](G)p.r(C)p.r(C)p.[hna](A)p.r(C)p.r(A)p.r(A)p.r(G)p.[hna](U)p.r(U)p.d(T)}|RNA2{r(A)p.r(C)p.[lna](T)p.r(U)p.r(G)p.[lna](T)p.r(G)p.r(G)p.r(C)p.r(C)p.r(G)p.r(U)p.r(U)p.[lna](T)p.r(A)p.r(C)p.r(G)p.[lna](T)p.r(C)p.[lna](G)p.[lna](C)}$$$RNA1{StrandType:ss}|RNA2{StrandType:as}$
target mRNA knockdown: 7.9%
